Data published in ChEMBL document CHEMBL3045393, “Aryldiones incorporating a [1,4,5]oxadiazepane ring. Part I: Discovery of the novel cereal herbicide pinoxaden” (Bioorg Med Chem, 2009).

What was measured:
Lolium perenne [1] = assay: Post-emergence herbicidal activity against Lolium perenne (perennial ryegrass) at 2000 g a.i./ha after 21 days; format: functional
Setaria faberi [2] = assay: Post-emergence herbicidal activity against Setaria faberi (Giant Foxtail) at 500 g a.i./ha measured after 15 days; format: functional
Lolium perenne [3] = assay: Post-emergence herbicidal activity against Lolium perenne (perennial ryegrass) at 500 g a.i./ha measured after 15 days; format: functional
Lolium perenne [4] = assay: Post-emergence herbicidal activity against Lolium perenne (perennial ryegrass) at 500 g a.i./ha after 21 days; format: functional
Avena fatua [5] = assay: Post-emergence herbicidal activity against Avena fatua at 500 g a.i./ha after 21 days; format: functional
Avena fatua [6] = assay: Post-emergence herbicidal activity against Avena fatua at 500 g a.i./ha measured after 15 days; format: functional
Triticum aestivum [7] = assay: Phytotoxicity against Triticum aestivum (wheat) at 500 g a.i./ha applied post-emergence measured after 15 days; format: organism-based; settings: in vivo, other, 360 h
Setaria faberi [8] = assay: Post-emergence herbicidal activity against Setaria faberi (Giant Foxtail) at 500 g a.i./ha after 21 days; format: functional
Setaria faberi [9] = assay: Post-emergence herbicidal activity against Setaria faberi (Giant Foxtail) at 2000 g a.i./ha after 21 days; format: functional
Alopecurus myosuroides [10] = assay: Post-emergence herbicidal activity against Alopecurus myosuroides at 500 g a.i./ha measured after 15 days; format: functional
Avena fatua [11] = assay: Post-emergence herbicidal activity against Avena fatua at 2000 g a.i./ha after 21 days; format: functional
Hordeum vulgare [12] = assay: Phytotoxicity against Hordeum vulgare (barley) at 500 g a.i./ha applied post-emergence measured after 15 days; format: organism-based; settings: in vivo, other, 360 h
Setaria faberi [13] = assay: Post-emergence herbicidal activity against Setaria faberi (Giant Foxtail) at 30 g a.i./ha measured after 21 days in presence of 1% Merge adjuvant; format: functional
[14] = Half life of hydrolysis at pH 7 at 50 degC; format: ADME; settings: buffer
Alopecurus myosuroides [15] = assay: Post-emergence herbicidal activity against Alopecurus myosuroides at 30 g a.i./ha measured after 21 days in presence of 1% Merge adjuvant; format: functional
Lolium perenne [16] = assay: Post-emergence herbicidal activity against Lolium perenne (perennial ryegrass) at 30 g a.i./ha measured after 21 days in presence of 1% Merge adjuvant; format: functional
Triticum aestivum [17] = assay: Phytotoxicity against Triticum aestivum (wheat) at 30 g a.i./ha applied post-emergence measured after 21 days in presence of 1% Merge adjuvant; format: organism-based; settings: in vivo, other, 504 h
Avena fatua [18] = assay: Post-emergence herbicidal activity against Avena fatua at 30 g a.i./ha measured after 21 days in presence of 1% Merge adjuvant; format: functional
Hordeum vulgare [19] = assay: Phytotoxicity against Hordeum vulgare (barley) at 30 g a.i./ha applied post-emergence measured after 21 days in presence of 1% Merge adjuvant; format: organism-based; settings: in vivo, other, 504 h
Lolium perenne [20] = assay: Post-emergence herbicidal activity against Lolium perenne (perennial ryegrass) at 125 g a.i./ha measured after 21 days in presence of 0.2% X-77 adjuvant; format: functional
Setaria faberi [21] = assay: Post-emergence herbicidal activity against Setaria faberi (Giant Foxtail) at 125 g a.i./ha measured after 21 days in presence of 0.2% X-77 adjuvant; format: functional
Alopecurus myosuroides [22] = assay: Post-emergence herbicidal activity against Alopecurus myosuroides at 125 g a.i./ha measured after 21 days in presence of 0.2% X-77 adjuvant; format: functional
Triticum aestivum [23] = assay: Phytotoxicity against Triticum aestivum (wheat) at 125 g a.i./ha applied post-emergence measured after 21 days in presence of 0.2% X-77 adjuvant; format: organism-based; settings: in vivo, other, 504 h
Hordeum vulgare [24] = assay: Phytotoxicity against Hordeum vulgare (barley) at 125 g a.i./ha applied post-emergence measured after 21 days in presence of 0.2% X-77 adjuvant; format: organism-based; settings: in vivo, other, 504 h
Avena fatua [25] = assay: Post-emergence herbicidal activity against Avena fatua at 125 g a.i./ha measured after 21 days in presence of 0.2% X-77 adjuvant; format: functional
Avena fatua [26] = assay: Post-emergence herbicidal activity against Avena fatua at 250 g a.i./ha measured after 21 days in presence of 1% Merge adjuvant; format: functional
Alopecurus myosuroides [27] = assay: Post-emergence herbicidal activity against Alopecurus myosuroides at 250 g a.i./ha measured after 21 days in presence of 1% Merge adjuvant; format: functional
Lolium perenne [28] = assay: Post-emergence herbicidal activity against Lolium perenne (perennial ryegrass) at 250 g a.i./ha measured after 21 days in presence of 1% Merge adjuvant; format: functional
Hordeum vulgare [29] = assay: Phytotoxicity against Hordeum vulgare (barley) at 250 g a.i./ha applied post-emergence measured after 21 days in presence of 1% Merge adjuvant; format: organism-based; settings: in vivo, other, 504 h
Setaria faberi [30] = assay: Post-emergence herbicidal activity against Setaria faberi (Giant Foxtail) at 250 g a.i./ha measured after 21 days in presence of 1% Merge adjuvant; format: functional
Triticum aestivum [31] = assay: Phytotoxicity against Triticum aestivum (wheat) at 250 g a.i./ha applied post-emergence measured after 21 days in presence of 1% Merge adjuvant; format: organism-based; settings: in vivo, other, 504 h

Question: Which Activity (Lolium perenne [1]) does the source give for `Cc1cc(C)c(C2C(=O)N3CCCCCN3C2=O)c(C)c1` here?
Answer: 90%

Question: What about the Activity (Setaria faberi [2]) of the same compound?
Answer: 60%

Question: What about the Activity (Lolium perenne [3]) of the same compound?
Answer: 50%

Question: And the Activity (Lolium perenne [4])?
Answer: 60%

Question: What about the Activity (Avena fatua [5]) of the same compound?
Answer: 50%

Question: And the Activity (Avena fatua [6])?
Answer: 90%

Question: And the Activity (Triticum aestivum [7])?
Answer: 20%

Question: What about the Activity (Setaria faberi [8]) of the same compound?
Answer: 90%

Question: What about the Activity (Setaria faberi [9]) of the same compound?
Answer: 90%

Question: What about the Activity (Alopecurus myosuroides [10]) of the same compound?
Answer: 50%

Question: What about the Activity (Avena fatua [11]) of the same compound?
Answer: 90%

Question: And the Activity (Hordeum vulgare [12])?
Answer: 40%

Question: Which Activity (Setaria faberi [13]) does the source give for `CCCCCCCS(=O)(=O)Oc1c(-c2c(CC)cc(C)cc2CC)c(=O)n2n1CCOCC2` here?
Answer: 90%

Question: What about the half-life [14] of the same compound?
Answer: 3 h

Question: What about the Activity (Alopecurus myosuroides [15]) of the same compound?
Answer: 80%

Question: What about the Activity (Lolium perenne [16]) of the same compound?
Answer: 100%

Question: And the Activity (Triticum aestivum [17])?
Answer: 20%

Question: What about the Activity (Avena fatua [18]) of the same compound?
Answer: 100%

Question: What about the Activity (Hordeum vulgare [19]) of the same compound?
Answer: 0%

Question: Which Activity (Setaria faberi [13]) does the source give for `CCc1cc(C)cc(CC)c1-c1c(OCOC(=O)C(C)(C)C)n2n(c1=O)CCOCC2` here?
Answer: 90%

Question: What about the Activity (Alopecurus myosuroides [15]) of the same compound?
Answer: 60%

Question: And the Activity (Lolium perenne [16])?
Answer: 100%

Question: What about the Activity (Triticum aestivum [17]) of the same compound?
Answer: 10%

Question: And the Activity (Avena fatua [18])?
Answer: 100%

Question: What about the Activity (Hordeum vulgare [19]) of the same compound?
Answer: 0%

Question: With `CCc1cc(C)cc(CC)c1C1C(=O)N2CCCCN2C1=O` as the compound, how does the Activity (Lolium perenne [20]) read?
Answer: 90%

Question: What about the Activity (Setaria faberi [21]) of the same compound?
Answer: 80%

Question: What about the Activity (Alopecurus myosuroides [22]) of the same compound?
Answer: 90%

Question: And the Activity (Triticum aestivum [23])?
Answer: 80%

Question: And the Activity (Hordeum vulgare [24])?
Answer: 90%

Question: And the Activity (Avena fatua [25])?
Answer: 100%

Question: With `CCc1cc(CC)c(C2C(=O)N3CCCCN3C2=O)c(CC)c1` as the compound, how does the Activity (Lolium perenne [20]) read?
Answer: 60%

Question: And the Activity (Setaria faberi [21])?
Answer: 50%

Question: And the Activity (Alopecurus myosuroides [22])?
Answer: 90%

Question: And the Activity (Triticum aestivum [23])?
Answer: 40%

Question: And the Activity (Hordeum vulgare [24])?
Answer: 40%

Question: And the Activity (Avena fatua [25])?
Answer: 100%

Question: With `Cc1cc(C)c(C2C(=O)N3CCCOCN3C2=O)c(C)c1` (centres undefined) as the compound, how does the Activity (Avena fatua [26]) read?
Answer: 0%

Question: And the Activity (Alopecurus myosuroides [27])?
Answer: 0%

Question: What about the Activity (Lolium perenne [28]) of the same compound?
Answer: 20%

Question: And the Activity (Hordeum vulgare [29])?
Answer: 10%

Question: And the Activity (Setaria faberi [30])?
Answer: 50%

Question: What about the Activity (Triticum aestivum [31]) of the same compound?
Answer: 10%

Question: Which results are given for `CCc1cc(C)cc(CC)c1-c1c(OC(=O)OC(C)C)n2n(c1=O)CCOCC2`?
Answer: Activity (Setaria faberi [13]): 100%; Activity (Alopecurus myosuroides [15]): 80%; Activity (Lolium perenne [16]): 100%; Activity (Triticum aestivum [17]): 0%; Activity (Avena fatua [18]): 90%; Activity (Hordeum vulgare [19]): 0%
